pKi: −log10 of the molar value.
Assays:
[1] = biological target: Urokinase-type plasminogen activator (Homo sapiens, UniProt P00749)
Serine protease 1 = Serine protease 1 (Homo sapiens, UniProt P07477); experiment: Inhibitory activity against Trypsin
Prothrombin = Prothrombin (Homo sapiens, UniProt P00734); experiment: Inhibitory activity against Thrombin (no observable inhibition at this screening concentration)
[2] = biological target: Tissue-type plasminogen activator (Homo sapiens, UniProt P00750); experiment: Inhibitory activity against tissue plasminogen activator
Sequence of Tissue-type plasminogen activator (P00750 whole entry): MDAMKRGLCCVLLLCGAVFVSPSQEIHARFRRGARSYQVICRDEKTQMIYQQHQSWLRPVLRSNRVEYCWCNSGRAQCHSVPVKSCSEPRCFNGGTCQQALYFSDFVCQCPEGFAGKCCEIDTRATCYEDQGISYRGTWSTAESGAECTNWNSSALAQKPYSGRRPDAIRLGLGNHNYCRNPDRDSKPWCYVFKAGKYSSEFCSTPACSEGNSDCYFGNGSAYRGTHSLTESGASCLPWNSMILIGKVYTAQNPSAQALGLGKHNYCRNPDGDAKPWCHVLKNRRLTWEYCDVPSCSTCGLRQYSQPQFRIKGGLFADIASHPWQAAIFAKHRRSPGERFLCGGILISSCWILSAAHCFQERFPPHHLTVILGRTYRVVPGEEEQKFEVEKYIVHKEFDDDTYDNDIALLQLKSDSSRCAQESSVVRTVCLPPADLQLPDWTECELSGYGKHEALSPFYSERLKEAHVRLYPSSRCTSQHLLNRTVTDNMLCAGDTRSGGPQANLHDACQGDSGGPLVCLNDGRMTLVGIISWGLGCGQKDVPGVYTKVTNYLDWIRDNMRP

Plasminogen = Plasminogen (Homo sapiens, UniProt P00747); experiment: Inhibitory activity against plasmin
Sequence of Plasminogen (P00747 97-580 limits assumed): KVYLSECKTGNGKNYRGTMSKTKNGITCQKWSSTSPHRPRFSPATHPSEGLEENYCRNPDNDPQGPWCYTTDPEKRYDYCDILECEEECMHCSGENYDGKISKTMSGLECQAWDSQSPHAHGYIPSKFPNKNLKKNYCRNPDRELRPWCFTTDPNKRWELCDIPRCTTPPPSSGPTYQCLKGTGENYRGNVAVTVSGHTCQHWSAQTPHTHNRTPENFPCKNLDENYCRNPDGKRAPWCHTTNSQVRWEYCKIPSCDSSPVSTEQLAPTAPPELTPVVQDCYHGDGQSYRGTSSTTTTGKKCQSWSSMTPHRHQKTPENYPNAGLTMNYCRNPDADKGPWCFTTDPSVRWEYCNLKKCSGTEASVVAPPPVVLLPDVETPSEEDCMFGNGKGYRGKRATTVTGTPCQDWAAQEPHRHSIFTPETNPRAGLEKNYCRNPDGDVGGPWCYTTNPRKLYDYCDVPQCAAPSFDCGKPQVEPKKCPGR
Sequence of Plasminogen (P00747 581-810 limits assumed): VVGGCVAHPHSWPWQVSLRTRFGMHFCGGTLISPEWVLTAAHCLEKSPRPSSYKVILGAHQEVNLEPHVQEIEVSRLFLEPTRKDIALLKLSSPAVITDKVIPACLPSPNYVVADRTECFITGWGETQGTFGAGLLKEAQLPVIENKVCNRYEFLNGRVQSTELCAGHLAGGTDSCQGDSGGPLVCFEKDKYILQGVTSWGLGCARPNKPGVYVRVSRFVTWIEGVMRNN

Sequence of Serine protease 1 (P07477 whole entry): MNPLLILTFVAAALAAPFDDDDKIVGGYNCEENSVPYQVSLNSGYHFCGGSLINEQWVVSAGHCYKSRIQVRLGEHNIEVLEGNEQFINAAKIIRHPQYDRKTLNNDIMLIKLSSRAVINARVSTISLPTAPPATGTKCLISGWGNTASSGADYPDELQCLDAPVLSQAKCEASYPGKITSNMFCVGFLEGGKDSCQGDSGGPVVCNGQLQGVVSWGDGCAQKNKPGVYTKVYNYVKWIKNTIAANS

SMILES | pKi [1] | also measured
CSc1sc(C(=N)N)cc1-c1nc(-c2ccc3ccccc3c2)cs1 | 3.86 | –
COC(=O)COc1cccc(-c2csc(-c3cc(C(=N)N)sc3SC)n2)c1 | 4.36 | –
CSc1sc(C(=N)N)cc1-c1nc(-c2ccc(S(=O)(=O)Nc3ccc(C)cc3)cc2)cs1 | 3.57 | –
CSc1sc(C(=N)N)cc1-c1nc(-c2ccc3c(c2)OCCCO3)cs1 | 4.00 | –
CSc1sc(C(=N)N)cc1-c1nc(-c2cccc(O)c2)cs1 | 4.07 | pKi (Serine protease 1): 6.03; pKi (Prothrombin): < 4.60; pKi [2]: 5.77; pKi (Plasminogen): 4.49
CSc1sc(C(=N)N)cc1-c1cccc(-c2ccccc2)c1 | < 4.47 | –
CSc1sc(C(=N)N)cc1-c1nc(-c2ccc3c(c2)OCO3)cs1 | 4.04 | pKi (Serine protease 1): 6.06; pKi (Prothrombin): < 4.54; pKi [2]: 5.77; pKi (Plasminogen): 4.97
CSc1sc(C(=N)N)cc1-c1nc(-c2ccc3c(c2)OCCO3)cs1 | 3.97 | –
CSc1sc(C(=N)N)cc1-c1nc(-c2cnccc2Cl)cs1 | 3.79 | –
COc1ccc(-c2csc(-c3cc(C(=N)N)sc3SC)n2)c(OC)c1 | 3.82 | –
CSc1sc(C(=N)N)cc1-c1nc(C2CCCCC2)cs1 | 3.19 | –
CSc1sc(C(=N)N)cc1-c1nc(-c2ccccc2)c(C)s1 | 3.52 | –
CSc1sc(C(=N)N)cc1-c1nc(-c2ccc3c(c2)CCCC3)cs1 | 3.84 | –
CSc1sc(C(=N)N)cc1-c1nc(-c2ccc(O)c(C)c2)cs1 | 4.36 | –
COc1ccc(-c2csc(-c3cc(C(=N)N)sc3SC)n2)cc1 | 3.49 | –
CSc1sc(C(=N)N)cc1-c1nc(-c2cccc(NC(=O)c3ccc(F)cc3)c2)cs1 | 4.33 | –
CSc1sc(C(=N)N)cc1-c1nc(-c2ccc([N+](=O)[O-])cc2)cs1 | 3.57 | –
CSc1sc(C(=N)N)cc1-c1ccccc1 | 6.22 | –
COc1cccc(-c2csc(-c3cc(C(=N)N)sc3SC)n2)c1 | 3.94 | pKi (Serine protease 1): 6.07; pKi (Prothrombin): < 4.52; pKi [2]: 5.72; pKi (Plasminogen): 5.16

SMILES | pKi [1] | also measured
CSc1sc(C(=N)N)cc1-c1nc(COc2ccccc2)cs1 | 3.75 | –
CSc1sc(C(=N)N)cc1-c1cccc(-c2ccccc2)n1 | < 4.55 | –
CSc1sc(C(=N)N)cc1-c1nc(-c2ccc(Cl)cc2)cs1 | 4.00 | –
CSc1sc(C(=N)N)cc1-c1nc(-c2ccc(Cl)c([N+](=O)[O-])c2)cs1 | 3.79 | –
CSc1sc(C(=N)N)cc1-c1nc(-c2ccc(Cl)cc2Cl)cs1 | 3.54 | –
CSc1sc(C(=N)N)cc1-c1nc(-c2csc3ccccc23)cs1 | 3.85 | –
CSc1sc(C(=N)N)cc1-c1nc(-c2ccc(NS(C)(=O)=O)cc2)cs1 | 4.03 | –
CSc1sc(C(=N)N)cc1-c1nc(-c2cccc(Br)c2)cs1 | 3.35 | –
CSc1sc(C(=N)N)cc1-c1nc(-c2cccnc2Cl)cs1 | 3.81 | –
CSc1sc(C(=N)N)cc1-c1nc(-c2ccccc2)c(-c2ccccc2)s1 | 3.01 | –
CSc1ccc(C(=N)N)s1 | 5.22 | –
CSc1sc(C(=N)N)cc1-c1nc(C)cs1 | 3.09 | –
CSc1sc(C(=N)N)cc1-c1nc(-c2cccc(C)c2)cs1 | 3.26 | –
CSc1sc(C(=N)N)cc1-c1nc(-c2ccc(C)cc2)cs1 | 4.03 | –
CSc1sc(C(=N)N)cc1-c1nc(-c2ccccc2C)cs1 | 3.56 | –
CSc1sc(C(=N)N)cc1-c1nc(-c2ccc(-c3ccccc3)cc2)cs1 | 2.76 | –
CSc1sc(C(=N)N)cc1-c1nc(-c2ccnc(Cl)c2)cs1 | 3.92 | –
COc1ccccc1-c1csc(-c2cc(C(=N)N)sc2SC)n1 | 3.89 | –

Source: ChEMBL document CHEMBL1134078, “Structure-based design, synthesis and SAR of a novel series of thiopheneamidine urokinase plasminogen activator inhibitors” (Bioorg Med Chem Lett, 2001)
